From PubChem BioAssay (NCI)
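GI50 marks 50% less growth. Definition used: TGI = concentration required for complete inhibition of growth.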

Assays:
Experiment in all cases: NCI-60 cell line screen, 384-well format
HT29 colon = test system: HT29 colon
SF-539 CNS = test system: SF-539 CNS
SF-268 CNS = test system: SF-268 CNS
U251 glioblastoma = test system: U251 glioblastoma
UACC-257 melanoma = test system: UACC-257 melanoma
RPMI-8226 leukemia = test system: RPMI-8226 leukemia
HOP-62 NSCLC = test system: HOP-62 NSCLC
M14 melanoma = test system: M14 melanoma
NCI-H23 lung = test system: NCI-H23 lung
TK-10 renal = test system: TK-10 renal
SK-MEL-2 melanoma = test system: SK-MEL-2 melanoma
OVCAR-4 ovarian = test system: OVCAR-4 ovarian
DU-145 prostate = test system: DU-145 prostate
SF-295 CNS = test system: SF-295 CNS
A498 renal = test system: A498 renal
SK-MEL-28 melanoma = test system: SK-MEL-28 melanoma
SW-620 colon = test system: SW-620 colon
SN12C renal = test system: SN12C renal
SK-OV-3 ovarian = test system: SK-OV-3 ovarian
MALME-3M melanoma = test system: MALME-3M melanoma
ACHN renal = test system: ACHN renal
HCC-2998 colon = test system: HCC-2998 colon
NCI/ADR-RES ovarian = test system: NCI/ADR-RES ovarian
SNB-19 CNS = test system: SNB-19 CNS
EKVX NSCLC = test system: EKVX NSCLC
PC-3 prostate = test system: PC-3 prostate
MOLT-4 leukemia = test system: MOLT-4 leukemia
NCI-H522 lung = test system: NCI-H522 lung
OVCAR-3 ovarian = test system: OVCAR-3 ovarian
IGROV1 ovarian = test system: IGROV1 ovarian
K-562 leukemia = test system: K-562 leukemia
MDA-MB-468 breast = test system: MDA-MB-468 breast
HCT-15 colon = test system: HCT-15 colon
KM12 colon = test system: KM12 colon
NCI-H226 lung = test system: NCI-H226 lung
HOP-92 NSCLC = test system: HOP-92 NSCLC
HL-60(TB) leukemia = test system: HL-60(TB) leukemia
UACC-62 melanoma = test system: UACC-62 melanoma
786-0 renal = test system: 786-0 renal
LOX IMVI melanoma = test system: LOX IMVI melanoma
OVCAR-8 ovarian = test system: OVCAR-8 ovarian
CAKI-1 renal = test system: CAKI-1 renal
MCF7 breast = test system: MCF7 breast
NCI-H460 NSCLC = test system: NCI-H460 NSCLC
SK-MEL-5 melanoma = test system: SK-MEL-5 melanoma
A549 NSCLC = test system: A549 NSCLC
RXF 393 renal = test system: RXF 393 renal
CCRF-CEM leukemia = test system: CCRF-CEM leukemia
MDA-MB-435 melanoma = test system: MDA-MB-435 melanoma
NCI-H322M lung = test system: NCI-H322M lung
HS 578T breast = test system: HS 578T breast
BT-549 breast = test system: BT-549 breast
HCT-116 colon = test system: HCT-116 colon
COLO 205 colon = test system: COLO 205 colon
SNB-75 CNS = test system: SNB-75 CNS

## CC(C)N=C(N)/N=C(\N)Nc1ccc2ccc3ccccc3c2c1
HT29 colon
  GI50: 1710 nM
  TGI: 3130 nM
SF-539 CNS
  GI50: 1740 nM
  TGI: 3130 nM
SF-268 CNS
  GI50: 1870 nM
  TGI: 3290 nM
U251 glioblastoma
  GI50: 1790 nM
  TGI: 3190 nM
UACC-257 melanoma
  GI50: 1480 nM
  TGI: 2820 nM
RPMI-8226 leukemia
  GI50: 1720 nM
  TGI: 3100 nM
HOP-62 NSCLC
  GI50: 2070 nM
  TGI: 3510 nM
M14 melanoma
  GI50: 1890 nM
  TGI: 3300 nM
NCI-H23 lung
  GI50: 1530 nM
  TGI: 2860 nM
TK-10 renal
  GI50: 1730 nM
  TGI: 3110 nM
SK-MEL-2 melanoma
  GI50: 1840 nM
  TGI: 3240 nM
OVCAR-4 ovarian
  GI50: 1300 nM
  TGI: 2580 nM
DU-145 prostate
  GI50: 1790 nM
  TGI: 3230 nM
SF-295 CNS
  GI50: 1650 nM
  TGI: 3020 nM
A498 renal
  GI50: 1560 nM
  TGI: 2910 nM
SK-MEL-28 melanoma
  GI50: 1850 nM
  TGI: 3270 nM
SW-620 colon
  GI50: 1800 nM
  TGI: 3230 nM
SN12C renal
  GI50: 1650 nM
  TGI: 3020 nM
SK-OV-3 ovarian
  GI50: 1420 nM
  TGI: 2730 nM
MALME-3M melanoma
  GI50: 1430 nM
  TGI: 2750 nM
ACHN renal
  GI50: 1590 nM
  TGI: 2950 nM
HCC-2998 colon
  GI50: 1400 nM
  TGI: 2710 nM
NCI/ADR-RES ovarian
  GI50: 10000 nM
  TGI: 21800 nM
SNB-19 CNS
  GI50: 1760 nM
  TGI: 3160 nM
EKVX NSCLC
  GI50: 1660 nM
  TGI: 3060 nM
PC-3 prostate
  GI50: 1520 nM
  TGI: 2870 nM
MOLT-4 leukemia
  GI50: 1360 nM
  TGI: 2650 nM
NCI-H522 lung
  GI50: 1560 nM
  TGI: 2910 nM
OVCAR-3 ovarian
  GI50: 1600 nM
  TGI: 2950 nM
IGROV1 ovarian
  GI50: 1020 nM
  TGI: 2210 nM
K-562 leukemia
  GI50: 1890 nM
  TGI: 3300 nM
MDA-MB-468 breast
  GI50: 242 nM
  TGI: 1470 nM
HCT-15 colon
  GI50: 1670 nM
  TGI: 3070 nM
KM12 colon
  GI50: 1820 nM
  TGI: 3250 nM
NCI-H226 lung
  GI50: 1640 nM
  TGI: 3010 nM
HOP-92 NSCLC
  GI50: 1560 nM
  TGI: 2900 nM
HL-60(TB) leukemia
  GI50: 1410 nM
  TGI: 2720 nM
UACC-62 melanoma
  GI50: 1490 nM
  TGI: 2830 nM
786-0 renal
  GI50: 1750 nM
  TGI: 3140 nM
LOX IMVI melanoma
  GI50: 1560 nM
  TGI: 2920 nM
OVCAR-8 ovarian
  GI50: 1700 nM
  TGI: 3100 nM
CAKI-1 renal
  GI50: 1480 nM
  TGI: 2820 nM
MCF7 breast
  GI50: 507 nM
  TGI: 1850 nM
NCI-H460 NSCLC
  GI50: 1750 nM
  TGI: 3170 nM
SK-MEL-5 melanoma
  GI50: 1110 nM
  TGI: 2330 nM
A549 NSCLC
  GI50: 1730 nM
  TGI: 3140 nM
RXF 393 renal
  GI50: 1580 nM
  TGI: 2930 nM
CCRF-CEM leukemia
  GI50: 1440 nM
  TGI: 2770 nM
MDA-MB-435 melanoma
  GI50: 1730 nM
  TGI: 3120 nM
NCI-H322M lung
  GI50: 1840 nM
  TGI: 3250 nM
HS 578T breast
  GI50: 1720 nM
  TGI: 3100 nM
BT-549 breast
  GI50: 1490 nM
  TGI: 2830 nM
HCT-116 colon
  GI50: 1710 nM
  TGI: 3140 nM
COLO 205 colon
  GI50: 1760 nM
  TGI: 3160 nM
SNB-75 CNS
  GI50: 1610 nM
  TGI: 2960 nM
